# PMC11206203, “Peptide macrocyclisation via intramolecular interception of visible-light-mediated desulfurisation” (Chemical Science, 2024)
# Key:
# [1] = Same desulfurative C-C cyclisation as series A (TCEP, Ir photocatalyst, blue light) with N-terminal Cys and C-terminal allylglycine (reversed pentapeptides); conditions: the molecule shown is the open-chain precursor; 17-membered ring; 6 M Gdn.HCl, 0.1 M Na2HPO4 pH 7.5-8.0 / MeCN 9:1; 0.5 mM; 25.0 °C
# [2] = C(sp3)-C(sp3) bond formation by visible-light-mediated Cys desulfurisation: alanyl radical adds to terminal alkene of allylglycine (or O-allyl Ser, pentenylGly, acrylamide); TCEP 50 eq (25 mM), (Ir[dF(CF3)ppy]2(dtbpy))PF6 1 mol%, 450 nm blue LED; unprotected peptides; conditions: 6 M Gdn.HCl, 0.1 M Na2HPO4 pH 7.5-8.0 / MeCN 9:1, 0.5 mM, 25.0 °C
structure (smiles),measurement,setting,value
C=CC[C@H](NC(=O)[C@H](CCSC)NC(=O)[C@H](Cc1ccc(O)cc1)NC(=O)[C@H](CC(C)C)NC(=O)[C@@H](N)CS)C(N)=O [H-Cys-Leu-Tyr-Met-(allylGly)-NH2],"ring closure, conversion by HPLC",[1],0%
C=CC[C@H](NC(=O)[C@H](CCC(N)=O)NC(=O)[C@H](Cc1c[nH]cn1)NC(=O)[C@@H](NC(=O)[C@@H](N)CS)C(C)C)C(N)=O [H-Cys-Val-His-Gln-(allylGly)-NH2],"ring closure, conversion by HPLC",[1],0%
C=CC[C@H](NC(=O)[C@H](CCC(=O)O)NC(=O)[C@H](Cc1ccccc1)NC(=O)[C@H](C)NC(=O)[C@H](CS)NC(C)=O)C(N)=O [Ac-Cys-Ala-Phe-Glu-(allylGly)-NH2],"ring closure, conversion by HPLC",[1],0%
C=CC[C@H](NC(=O)[C@H](CCC(=O)O)NC(=O)[C@H](Cc1ccccc1)NC(=O)[C@H](C)NC(=O)[C@@H](N)CS)C(N)=O [H-Cys-Ala-Phe-Glu-(allylGly)-NH2],"ring closure, conversion by HPLC",[1],25%
C=CC[C@H](NC(=O)[C@H](CCCNC(=N)N)NC(=O)[C@H](Cc1c[nH]c2ccccc12)NC(=O)[C@@H](NC(=O)[C@H](CS)NC(C)=O)[C@@H](C)CC)C(N)=O [Ac-Cys-Ile-Trp-Arg-(allylGly)-NH2],"ring closure, conversion by HPLC",[1],7%
C=CC[C@H](NC(=O)[C@H](CCCCN)NC(=O)[C@@H]1CCCN1C(=O)[C@@H](NC(=O)[C@H](CS)NC(C)=O)[C@@H](C)O)C(N)=O [Ac-Cys-Thr-Pro-Lys-(allylGly)-NH2],"ring closure, conversion by HPLC",[1],0%
CC(=O)N[C@H]1CCCC[C@@H](C(N)=O)NC(=O)[C@H](C(C)C)NC(=O)[C@H](CCCNC(=N)N)NC(=O)[C@@H]2CCCN2C(=O)[C@H](Cc2c[nH]cn2)NC(=O)[C@H](CC(N)=O)NC1=O [Ac-(allylGly)-Asn-His-Pro-Arg-Val-Cys-NH2],"ring closure, isolated yield","[2]; from C=CC[C@H](NC(C)=O)C(=O)N[C@@H](CC(N)=O)C(=O)N[C@@H](Cc1c[nH]cn1)C(=O)N1CCC[C@H]1C(=O)N[C@@H](CCCNC(=N)N)C(=O)N[C@H](C(=O)N[C@@H](CS)C(N)=O)C(C)C, 23-membered ring",32%
CC(=O)N[C@H]1CCCC[C@@H](C(N)=O)NC(=O)[C@H](Cc2c[nH]c3ccccc23)NC(=O)[C@H](CCC(N)=O)NC(=O)[C@H](CC(C)C)NC(=O)[C@H](CCC(=O)O)NC1=O [Ac-(allylGly)-Glu-Leu-Gln-Trp-Cys-NH2],"ring closure, isolated yield","[2]; from C=CC[C@H](NC(C)=O)C(=O)N[C@@H](CCC(=O)O)C(=O)N[C@@H](CC(C)C)C(=O)N[C@@H](CCC(N)=O)C(=O)N[C@@H](Cc1c[nH]c2ccccc12)C(=O)N[C@@H](CS)C(N)=O, 20-membered ring",37%
C=CC[C@H](NC(=O)[C@H](CCC(N)=O)NC(=O)[C@H](Cc1c[nH]cn1)NC(=O)[C@@H](NC(=O)[C@H](CS)NC(C)=O)C(C)C)C(N)=O [Ac-Cys-Val-His-Gln-(allylGly)-NH2],"ring closure, conversion by HPLC",[1],28%
CSCC[C@@H]1NC(=O)[C@H](Cc2ccc(O)cc2)NC(=O)[C@H](CC(C)C)NC(=O)[C@@H](NC(C)=O)CCCC[C@@H](C(N)=O)NC1=O [Ac-(allylGly)-Leu-Tyr-Met-Cys-NH2],"ring closure, isolated yield","[2]; from C=CC[C@H](NC(C)=O)C(=O)N[C@@H](CC(C)C)C(=O)N[C@@H](Cc1ccc(O)cc1)C(=O)N[C@@H](CCSC)C(=O)N[C@@H](CS)C(N)=O, 17-membered ring",69%
CC(=O)N[C@H]1CCCC[C@@H](C(N)=O)NC(=O)[C@H](CC(=O)O)NC(=O)CNC(=O)[C@H](C(C)C)NC1=O [Ac-(allylGly)-Val-Gly-Asp-Cys-NH2],"ring closure, isolated yield","[2]; from C=CC[C@H](NC(C)=O)C(=O)N[C@H](C(=O)NCC(=O)N[C@@H](CC(=O)O)C(=O)N[C@@H](CS)C(N)=O)C(C)C, 17-membered ring",54%
CSCC[C@@H]1NC(=O)[C@@H]2CCCN2C(=O)[C@H](CCCNC(=N)N)NC(=O)[C@@H](N)CCCC[C@@H](C(N)=O)NC(=O)[C@H](Cc2c[nH]cn2)NC1=O [H-(allylGly)-Arg-Pro-Met-His-Cys-NH2],"ring closure, isolated yield","[2]; from C=CC[C@H](N)C(=O)N[C@@H](CCCNC(=N)N)C(=O)N1CCC[C@H]1C(=O)N[C@@H](CCSC)C(=O)N[C@@H](Cc1c[nH]cn1)C(=O)N[C@@H](CS)C(N)=O, 20-membered ring",0%
C=CC[C@H](NC(=O)[C@H](CCCCN)NC(=O)[C@@H]1CCCN1C(=O)[C@@H](NC(=O)[C@@H](N)CS)[C@@H](C)O)C(N)=O [H-Cys-Thr-Pro-Lys-(allylGly)-NH2],"ring closure, conversion by HPLC",[1],0%
CSCC[C@@H]1NC(=O)[C@H](Cc2ccc(O)cc2)NC(=O)[C@H](CC(C)C)NC(=O)[C@@H](N)CCCC[C@@H](C(N)=O)NC1=O [H-(allylGly)-Leu-Tyr-Met-Cys-NH2],"ring closure, isolated yield","[2]; from C=CC[C@H](N)C(=O)N[C@@H](CC(C)C)C(=O)N[C@@H](Cc1ccc(O)cc1)C(=O)N[C@@H](CCSC)C(=O)N[C@@H](CS)C(N)=O, 17-membered ring",54%
CC[C@H](C)[C@@H]1NC(=O)[C@H](Cc2ccc(O)cc2)NC(=O)[C@@H](N)CCCC[C@@H](C(=O)N2CCC[C@H]2C(=O)N[C@@H](CC(C)C)C(=O)NCC(N)=O)NC(=O)[C@H](CC(N)=O)NC(=O)[C@H](CCC(N)=O)NC1=O [H-(allylGly)-Tyr-Ile-Gln-Asn-Cys-Pro-Leu-Gly-NH2],"ring closure, isolated yield","[2]; from C=CC[C@H](N)C(=O)N[C@@H](Cc1ccc(O)cc1)C(=O)N[C@H](C(=O)N[C@@H](CCC(N)=O)C(=O)N[C@@H](CC(N)=O)C(=O)N[C@@H](CS)C(=O)N1CCC[C@H]1C(=O)N[C@@H](CC(C)C)C(=O)NCC(N)=O)[C@@H](C)CC, 20-membered ring",0%
CC(=O)N[C@H]1CCCC[C@@H](C(N)=O)NC(=O)[C@H](CCC(=O)O)NC(=O)[C@H](Cc2ccccc2)NC(=O)[C@H](C)NC1=O [Ac-(allylGly)-Ala-Phe-Glu-Cys-NH2],"ring closure, isolated yield","[2]; from C=CC[C@H](NC(C)=O)C(=O)N[C@@H](C)C(=O)N[C@@H](Cc1ccccc1)C(=O)N[C@@H](CCC(=O)O)C(=O)N[C@@H](CS)C(N)=O, 17-membered ring",74%
CC1CC[C@@H](C(N)=O)NC(=O)[C@H](C)NC(=O)[C@H](Cc2ccccc2)NC(=O)[C@H](C)NC(=O)[C@@H](N)COC1 (stereo partly drawn) [H-Ser(O-2-methylallyl)-Ala-Phe-Ala-Cys-NH2],"ring closure, isolated yield","[2]; from C=C(C)COC[C@H](N)C(=O)N[C@@H](C)C(=O)N[C@@H](Cc1ccccc1)C(=O)N[C@@H](C)C(=O)N[C@@H](CS)C(N)=O, 19-membered ring, 0.17 h",77%
CC(=O)N[C@H]1CCCC[C@@H](C(N)=O)NC(=O)[C@H](CCC(N)=O)NC(=O)[C@H](Cc2c[nH]cn2)NC(=O)[C@H](C(C)C)NC1=O [Ac-(allylGly)-Val-His-Gln-Cys-NH2],"ring closure, isolated yield","[2]; from C=CC[C@H](NC(C)=O)C(=O)N[C@H](C(=O)N[C@@H](Cc1c[nH]cn1)C(=O)N[C@@H](CCC(N)=O)C(=O)N[C@@H](CS)C(N)=O)C(C)C, 17-membered ring",59%
NC(=O)CC[C@@H]1NC(=O)[C@H](Cc2ccc(O)cc2)NC(=O)[C@H](Cc2ccccc2)NC(=O)[C@@H](NC(=O)[C@@H](N)CC(=O)O)CCCC[C@@H](C(N)=O)NC1=O [H-Asp-(allylGly)-Phe-Tyr-Gln-Cys-NH2],"ring closure, isolated yield","[2]; from C=CC[C@H](NC(=O)[C@@H](N)CC(=O)O)C(=O)N[C@@H](Cc1ccccc1)C(=O)N[C@@H](Cc1ccc(O)cc1)C(=O)N[C@@H](CCC(N)=O)C(=O)N[C@@H](CS)C(N)=O, 17-membered ring",82%
C=CC[C@H](NC(=O)[C@H](CCSC)NC(=O)[C@H](Cc1ccc(O)cc1)NC(=O)[C@H](CC(C)C)NC(=O)[C@H](CS)NC(C)=O)C(N)=O [Ac-Cys-Leu-Tyr-Met-(allylGly)-NH2],"ring closure, conversion by HPLC",[1],21%
C=CC[C@H](NC(=O)[C@H](CCCNC(=N)N)NC(=O)[C@H](Cc1c[nH]c2ccccc12)NC(=O)[C@@H](NC(=O)[C@@H](N)CS)[C@@H](C)CC)C(N)=O [H-Cys-Ile-Trp-Arg-(allylGly)-NH2],"ring closure, conversion by HPLC",[1],0%
CC[C@H](C)[C@@H]1NC(=O)[C@@H](NC(C)=O)CCCC[C@@H](C(N)=O)NC(=O)[C@H](CCCNC(=N)N)NC(=O)[C@H](Cc2c[nH]c3ccccc23)NC1=O [Ac-(allylGly)-Ile-Trp-Arg-Cys-NH2],"ring closure, isolated yield","[2]; from C=CC[C@H](NC(C)=O)C(=O)N[C@H](C(=O)N[C@@H](Cc1c[nH]c2ccccc12)C(=O)N[C@@H](CCCNC(=N)N)C(=O)N[C@@H](CS)C(N)=O)[C@@H](C)CC, 17-membered ring",59%
C[C@@H]1NC(=O)[C@H](Cc2ccccc2)NC(=O)[C@H](C)NC(=O)[C@@H](N)CCCC[C@@H](C(N)=O)NC1=O [H-(allylGly)-Ala-Phe-Ala-Cys-NH2],"ring closure, isolated yield","[2]; from C=CC[C@H](N)C(=O)N[C@@H](C)C(=O)N[C@@H](Cc1ccccc1)C(=O)N[C@@H](C)C(=O)N[C@@H](CS)C(N)=O, 17-membered ring, 0.75 h",79%
C[C@@H]1NC(=O)CCC[C@@H](C(N)=O)NC(=O)[C@H](C)NC(=O)[C@H](Cc2ccccc2)NC1=O [Acryloyl-Ala-Phe-Ala-Cys-NH2],"ring closure, isolated yield","[2]; from C=CC(=O)N[C@@H](C)C(=O)N[C@@H](Cc1ccccc1)C(=O)N[C@@H](C)C(=O)N[C@@H](CS)C(N)=O, 15-membered ring, 1.0 h",0%
